From US5462948A, “Treatment of addiction to drugs and substances of abuse” (H. Lundbeck A/S, priority 1991, dated 1995)

What was measured:
[1] = Catalepsy test in rats (s.c., vertical wire mesh); conditions: rat, maximum catalepsy within the first 6 hours
Experimental: Test compound is given s.c. in different doses. The rat (170-240 g) is placed on a vertical wire mesh (mesh diameter 12 mm). The rat is considered cataleptic if it remains immobile for more than 15 sec. The maximum number of rats showing catalepsy within the first 6 hours is recorded for each dose group. The results are recorded in fractions and an ED50 value is calculated by means of log-probit analysis. The results are shown in Table 1 (cf. Our Internat. Patent Application Publ. No. WO 92/00070).

[2] = Inhibition of diazepam withdrawal symptoms in mice (black/white test box); assay type: in vivo, mice (male BKW); conditions: 0.1 mg/kg i.p.; FIG. 1
Experimental: (§1) The tests are tests for the effect of a substance on the abstinence symptoms induced by withdrawal of a drug of a substance of abuse in mice measured as the effect on some specific behavioral changes following to withdrawal of the drug or substance of abuse.
(§2) The test was conducted using an open-top experimental box (45*27*27 cm) two fifths of which was partitioned from the rest, painted black and illuminated with a dim red light (1×60 W, zero Lux). The remainder of the box was painted white and brightly illuminated (60 W, 400 Lux) with a white light source. The light sources were located 17 cm above the box and the base of the box was lined into 9 cm squares. Access between the two compartments was by means of a 7.5×7.5 cm opening located in floor level at the centre of the partition.
(§3) The mice were male BKW mice having weight of 25-30 g, housed in groups of 10 and given free acces to drink and food and kept on a dark/light cycle of 12 hours.
Diazepam (10 mg/kg) was given i.p. twice a day for 7 days and then withdrawn. […]
The test was carried out by taking the mice to a dimly illuminated room and then after 1 hour adaption to the new environment placing them in the centre of the white section of the test box. […] The following behavioural changes were measured: […]

[3] = Inhibition of nicotine withdrawal symptoms in mice (black/white test box); assay type: in vivo, mice (male BKW); conditions: 0.1 mg/kg i.p.; FIG. 2
Experimental: as §1, §2, §3
The test was carried out by taking the mice to a dimly illuminated room and then after 1 hour adaption to the new environment placing them in the centre of the white section of the test box. Behavioural changes were assed via remote video recording. The following behavioural changes were measured:
a) The time spent in the white and black section;
b) the number of explorative rearings in both the white and black section; […]

SMILES	Cataleptic activity ED50 (s.c.) [1] [µmol/kg]	other results
O=C1CCCN1CCN1CCC(c2cn(-c3ccc(F)cc3)c3ccc(Cl)cc23)CC1 [Comp. No 4, 5-chloro-1-(4-fluorophenyl)-3-[1-[2-(2-pyrrolidinon-1-yl)ethyl]-4-piperidyl]-1H-indole]	23	–
CN1CCN(CCN2CCC(c3cn(-c4ccc(F)cc4)c4ccc(Cl)cc34)CC2)C1=O [Comp. No 3, 5-chloro-1-(4-fluorophenyl)-3-[1-[2-(3-methyl-2-imidazolidinon-1-yl)ethyl]-4-piperidyl]-1H-indole]	31	–
O=C1NCCN1CCN1CC=C(c2cn(-c3ccc(F)cc3)c3ccc(Cl)cc23)CC1 [Comp. B, 5-Chloro-1-(4-fluorophenyl)-3-[1-[2-(2-imidazolidinon-1-yl)ethyl]-1,2,3,6-tetrahydro-4-pyridyl]-1H-indole, reference compound]	2.2	–
O=C1NCCN1CCN1CCC(c2cn(-c3ccc(F)cc3)c3ccc(Cl)cc23)CC1 [Sertindole, 5-chloro-1-(4-fluorophenyl)-3-[1-[2-(2-imidazolidinon-1-yl)ethyl]-4-piperidyl]-1H-indole]	–	Inhibiting effect on the withdrawal behavioural changes, diazepam [2]: statistically significant inhibiting effect; Relieving effect on the symptoms following withdrawal of diazepam [2]: marked relieving effect; Inhibiting effect on the withdrawal behavioural changes, nicotine [3]: statistically significant inhibiting effect; Relieving effect on the symptoms following withdrawal of nicotine [3]: marked relieving effect
O=C1NCCN1CCN1CC=C(c2cn(-c3ccc(F)cc3)c3ccc(C(F)(F)F)cc23)CC1 [Comp. A, 1-(4-Fluorophenyl)-3-[1-[2-(2-imidazolidinon-1-yl)ethyl]-1,2,3,6-tetrahydropyridin-4-yl]-5-trifluoromethyl-1H-indole, reference compound]	0.49	–
